Test results: BindingDB's records for doi:10.1124/jpet.102.047092 (Case Western Reserve University, 2003)

Key:
Vasopressin V1b receptor = target: T1, Vasopressin V1b receptor (Homo sapiens, UniProt P47901)
T1 sequence (P47901 whole entry): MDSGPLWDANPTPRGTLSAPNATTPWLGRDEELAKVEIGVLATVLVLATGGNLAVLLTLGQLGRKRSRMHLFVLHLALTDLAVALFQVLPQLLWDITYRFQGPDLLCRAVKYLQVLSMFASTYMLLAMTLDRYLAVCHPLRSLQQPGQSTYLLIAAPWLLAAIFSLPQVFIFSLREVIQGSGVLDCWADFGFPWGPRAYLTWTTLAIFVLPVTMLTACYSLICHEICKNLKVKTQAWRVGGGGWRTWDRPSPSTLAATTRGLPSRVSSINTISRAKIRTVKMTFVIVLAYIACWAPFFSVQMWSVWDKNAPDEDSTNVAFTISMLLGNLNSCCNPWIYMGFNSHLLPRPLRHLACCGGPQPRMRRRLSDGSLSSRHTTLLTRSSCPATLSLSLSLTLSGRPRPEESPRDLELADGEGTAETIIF

[1] = target: Neuronal acetylcholine receptor subunit alpha-4 (Homo sapiens, UniProt P43681)
[2] = target: Kappa-type opioid receptor (Cavia porcellus, UniProt P41144)
Cannabinoid receptor 1 = Cannabinoid receptor 1 (Rattus norvegicus, UniProt P20272)
Histamine H1 receptor = Histamine H1 receptor (Rattus norvegicus, UniProt P31390)
[3] = target: 5-hydroxytryptamine receptor 5A (Homo sapiens, UniProt P47898)
[4] = target: T2, 5-hydroxytryptamine receptor 1A (Homo sapiens, UniProt P08908)
T2 sequence (P08908 whole entry): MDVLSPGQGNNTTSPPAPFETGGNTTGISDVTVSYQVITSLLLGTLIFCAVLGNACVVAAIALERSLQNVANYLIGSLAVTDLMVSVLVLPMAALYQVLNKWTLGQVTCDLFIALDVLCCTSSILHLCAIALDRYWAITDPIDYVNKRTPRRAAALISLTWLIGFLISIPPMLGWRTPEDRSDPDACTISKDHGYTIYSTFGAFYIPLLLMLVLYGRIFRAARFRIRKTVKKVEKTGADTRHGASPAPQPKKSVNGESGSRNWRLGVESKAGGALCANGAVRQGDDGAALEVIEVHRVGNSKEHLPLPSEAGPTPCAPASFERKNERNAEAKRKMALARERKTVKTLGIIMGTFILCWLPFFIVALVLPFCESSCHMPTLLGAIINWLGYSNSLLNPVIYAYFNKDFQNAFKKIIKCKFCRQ

Histamine H2 receptor = Histamine H2 receptor (Homo sapiens, UniProt P25021)
Vasopressin V2 receptor = Vasopressin V2 receptor (Homo sapiens, UniProt P30518)
Nischarin = Nischarin (Rattus norvegicus, UniProt Q4G017)
Oxytocin receptor = target: T3, Oxytocin receptor (Homo sapiens, UniProt P30559)
T3 sequence (P30559 whole entry): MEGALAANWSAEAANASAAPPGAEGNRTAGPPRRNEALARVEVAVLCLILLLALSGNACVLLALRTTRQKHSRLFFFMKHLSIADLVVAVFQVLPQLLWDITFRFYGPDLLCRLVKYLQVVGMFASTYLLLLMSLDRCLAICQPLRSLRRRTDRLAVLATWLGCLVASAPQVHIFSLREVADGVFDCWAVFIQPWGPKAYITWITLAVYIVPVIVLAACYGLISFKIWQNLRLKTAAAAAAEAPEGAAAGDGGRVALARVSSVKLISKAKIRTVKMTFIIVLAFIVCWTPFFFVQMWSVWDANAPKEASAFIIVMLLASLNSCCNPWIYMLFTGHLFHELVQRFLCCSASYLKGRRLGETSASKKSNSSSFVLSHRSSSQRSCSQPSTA

[5] = target: 5-hydroxytryptamine receptor 1D (Homo sapiens, UniProt P28221)
[6] = target: Beta-1 adrenergic receptor (Rattus norvegicus, UniProt P18090)
[7] = target: Sodium-dependent serotonin transporter (Homo sapiens, UniProt P31645)
[8] = target: Beta-2 adrenergic receptor (Rattus norvegicus, UniProt P10608)
[9] = target: Neuronal acetylcholine receptor subunit alpha-4 (Rattus norvegicus, UniProt P09483)
[10] = target: T4, Muscarinic acetylcholine receptor M2 (Homo sapiens, UniProt P08172)
T4 sequence (P08172 whole entry): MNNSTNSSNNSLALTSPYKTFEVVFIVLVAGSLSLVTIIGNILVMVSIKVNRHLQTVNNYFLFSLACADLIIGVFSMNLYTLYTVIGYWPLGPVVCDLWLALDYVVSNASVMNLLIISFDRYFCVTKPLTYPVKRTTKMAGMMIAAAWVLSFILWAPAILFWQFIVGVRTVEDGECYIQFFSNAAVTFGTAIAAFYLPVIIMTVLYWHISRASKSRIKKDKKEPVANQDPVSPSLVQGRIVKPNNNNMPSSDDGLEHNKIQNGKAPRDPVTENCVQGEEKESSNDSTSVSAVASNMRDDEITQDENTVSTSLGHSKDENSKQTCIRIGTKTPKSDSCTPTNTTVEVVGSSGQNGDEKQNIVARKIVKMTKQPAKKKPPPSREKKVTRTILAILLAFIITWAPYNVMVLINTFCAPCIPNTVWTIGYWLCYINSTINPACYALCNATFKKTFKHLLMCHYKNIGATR

Measured: Ki

Sequence of Sodium-dependent serotonin transporter (P31645 whole entry): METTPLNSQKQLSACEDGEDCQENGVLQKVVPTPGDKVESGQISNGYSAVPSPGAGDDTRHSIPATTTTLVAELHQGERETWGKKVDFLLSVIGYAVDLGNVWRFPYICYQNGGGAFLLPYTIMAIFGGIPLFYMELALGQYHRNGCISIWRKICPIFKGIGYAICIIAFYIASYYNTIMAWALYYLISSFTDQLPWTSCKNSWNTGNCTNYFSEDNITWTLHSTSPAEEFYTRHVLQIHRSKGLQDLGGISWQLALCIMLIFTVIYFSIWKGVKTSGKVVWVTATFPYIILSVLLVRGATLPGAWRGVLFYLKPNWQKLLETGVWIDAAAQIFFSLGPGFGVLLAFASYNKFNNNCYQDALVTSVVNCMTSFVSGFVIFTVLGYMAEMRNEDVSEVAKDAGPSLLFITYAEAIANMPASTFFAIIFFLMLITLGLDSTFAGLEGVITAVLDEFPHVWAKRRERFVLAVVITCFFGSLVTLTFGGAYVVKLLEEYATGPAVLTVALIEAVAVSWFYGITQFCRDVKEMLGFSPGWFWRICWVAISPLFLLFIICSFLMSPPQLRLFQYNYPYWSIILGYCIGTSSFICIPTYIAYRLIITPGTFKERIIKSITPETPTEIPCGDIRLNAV
Sequence of Neuronal acetylcholine receptor subunit alpha-4 (Homo sapiens, UniProt P43681) (P43681 whole entry): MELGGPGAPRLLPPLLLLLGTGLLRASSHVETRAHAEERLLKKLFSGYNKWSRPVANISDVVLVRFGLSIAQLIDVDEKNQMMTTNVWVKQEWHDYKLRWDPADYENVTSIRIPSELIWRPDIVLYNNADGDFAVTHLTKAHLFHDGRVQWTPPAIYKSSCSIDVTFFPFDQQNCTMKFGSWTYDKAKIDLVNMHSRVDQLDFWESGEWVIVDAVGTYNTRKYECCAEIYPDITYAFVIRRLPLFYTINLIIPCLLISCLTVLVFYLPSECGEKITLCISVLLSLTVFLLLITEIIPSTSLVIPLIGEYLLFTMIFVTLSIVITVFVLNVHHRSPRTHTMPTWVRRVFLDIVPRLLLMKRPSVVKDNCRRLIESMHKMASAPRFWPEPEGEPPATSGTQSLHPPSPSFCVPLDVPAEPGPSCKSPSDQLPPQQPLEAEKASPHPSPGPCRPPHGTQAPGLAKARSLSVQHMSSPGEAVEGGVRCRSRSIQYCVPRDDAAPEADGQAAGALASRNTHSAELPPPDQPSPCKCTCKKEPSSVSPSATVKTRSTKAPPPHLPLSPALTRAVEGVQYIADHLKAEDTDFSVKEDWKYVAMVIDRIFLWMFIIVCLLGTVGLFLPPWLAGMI
Sequence of Neuronal acetylcholine receptor subunit alpha-4 (Rattus norvegicus, UniProt P09483) (P09483 whole entry): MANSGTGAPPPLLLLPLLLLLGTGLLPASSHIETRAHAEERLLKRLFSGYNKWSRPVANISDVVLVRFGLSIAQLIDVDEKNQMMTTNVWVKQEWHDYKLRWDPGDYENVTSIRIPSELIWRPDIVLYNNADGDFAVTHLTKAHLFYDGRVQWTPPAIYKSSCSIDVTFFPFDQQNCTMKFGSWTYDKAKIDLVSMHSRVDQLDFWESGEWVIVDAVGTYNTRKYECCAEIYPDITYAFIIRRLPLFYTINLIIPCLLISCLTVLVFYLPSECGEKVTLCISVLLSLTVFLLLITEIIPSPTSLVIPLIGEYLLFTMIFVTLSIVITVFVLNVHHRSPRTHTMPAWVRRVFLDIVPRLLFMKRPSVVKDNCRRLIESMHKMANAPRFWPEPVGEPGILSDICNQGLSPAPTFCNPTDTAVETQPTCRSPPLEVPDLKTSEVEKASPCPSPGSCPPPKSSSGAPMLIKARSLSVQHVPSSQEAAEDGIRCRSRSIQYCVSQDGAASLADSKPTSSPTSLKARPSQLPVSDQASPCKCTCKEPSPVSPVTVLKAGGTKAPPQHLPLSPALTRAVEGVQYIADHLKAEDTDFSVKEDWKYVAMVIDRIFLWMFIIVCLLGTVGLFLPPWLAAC
Sequence of 5-hydroxytryptamine receptor 5A (P47898 whole entry): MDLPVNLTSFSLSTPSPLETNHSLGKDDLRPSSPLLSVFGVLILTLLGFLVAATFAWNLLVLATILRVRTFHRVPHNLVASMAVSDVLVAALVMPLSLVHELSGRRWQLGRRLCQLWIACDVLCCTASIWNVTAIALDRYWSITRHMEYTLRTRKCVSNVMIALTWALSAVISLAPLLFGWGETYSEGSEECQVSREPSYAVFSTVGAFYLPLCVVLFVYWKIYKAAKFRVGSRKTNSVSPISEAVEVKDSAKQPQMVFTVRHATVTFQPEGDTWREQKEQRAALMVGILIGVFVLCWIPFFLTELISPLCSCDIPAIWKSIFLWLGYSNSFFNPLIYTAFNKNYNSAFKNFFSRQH
Sequence of Beta-2 adrenergic receptor (P10608 whole entry): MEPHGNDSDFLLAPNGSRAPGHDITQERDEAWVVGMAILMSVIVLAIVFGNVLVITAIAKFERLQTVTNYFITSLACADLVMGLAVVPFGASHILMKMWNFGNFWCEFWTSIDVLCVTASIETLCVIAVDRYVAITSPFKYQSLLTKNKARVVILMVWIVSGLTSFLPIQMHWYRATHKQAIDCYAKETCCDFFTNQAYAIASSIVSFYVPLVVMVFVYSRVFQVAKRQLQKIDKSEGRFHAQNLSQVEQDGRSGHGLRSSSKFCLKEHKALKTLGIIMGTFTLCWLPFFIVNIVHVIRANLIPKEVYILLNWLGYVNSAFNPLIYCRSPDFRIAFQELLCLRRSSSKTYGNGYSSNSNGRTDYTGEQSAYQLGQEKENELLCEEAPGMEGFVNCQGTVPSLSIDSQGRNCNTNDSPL
Sequence of Histamine H1 receptor (P31390 whole entry): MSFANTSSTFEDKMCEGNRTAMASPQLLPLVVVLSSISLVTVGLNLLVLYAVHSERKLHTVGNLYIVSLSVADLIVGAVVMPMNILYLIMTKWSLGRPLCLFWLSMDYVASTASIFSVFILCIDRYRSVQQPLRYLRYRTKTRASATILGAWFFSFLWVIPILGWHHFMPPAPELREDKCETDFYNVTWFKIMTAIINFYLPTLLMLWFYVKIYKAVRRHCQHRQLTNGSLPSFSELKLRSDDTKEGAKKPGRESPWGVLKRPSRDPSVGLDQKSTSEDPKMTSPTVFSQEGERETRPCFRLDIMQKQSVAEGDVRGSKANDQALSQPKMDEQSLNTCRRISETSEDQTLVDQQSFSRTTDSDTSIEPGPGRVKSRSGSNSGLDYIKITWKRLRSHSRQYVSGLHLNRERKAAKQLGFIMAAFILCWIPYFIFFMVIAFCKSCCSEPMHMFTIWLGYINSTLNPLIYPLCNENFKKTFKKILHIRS
Sequence of Kappa-type opioid receptor (P41144 whole entry): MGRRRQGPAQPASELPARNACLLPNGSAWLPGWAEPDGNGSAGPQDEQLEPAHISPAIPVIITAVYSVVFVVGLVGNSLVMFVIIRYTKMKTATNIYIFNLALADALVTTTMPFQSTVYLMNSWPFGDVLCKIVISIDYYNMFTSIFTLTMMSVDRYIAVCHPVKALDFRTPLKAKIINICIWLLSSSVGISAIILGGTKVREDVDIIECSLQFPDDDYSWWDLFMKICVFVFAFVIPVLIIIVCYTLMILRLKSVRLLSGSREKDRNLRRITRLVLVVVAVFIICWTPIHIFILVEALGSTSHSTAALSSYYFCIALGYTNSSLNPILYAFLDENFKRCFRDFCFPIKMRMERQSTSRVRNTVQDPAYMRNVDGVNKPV
Sequence of Histamine H2 receptor (P25021 whole entry): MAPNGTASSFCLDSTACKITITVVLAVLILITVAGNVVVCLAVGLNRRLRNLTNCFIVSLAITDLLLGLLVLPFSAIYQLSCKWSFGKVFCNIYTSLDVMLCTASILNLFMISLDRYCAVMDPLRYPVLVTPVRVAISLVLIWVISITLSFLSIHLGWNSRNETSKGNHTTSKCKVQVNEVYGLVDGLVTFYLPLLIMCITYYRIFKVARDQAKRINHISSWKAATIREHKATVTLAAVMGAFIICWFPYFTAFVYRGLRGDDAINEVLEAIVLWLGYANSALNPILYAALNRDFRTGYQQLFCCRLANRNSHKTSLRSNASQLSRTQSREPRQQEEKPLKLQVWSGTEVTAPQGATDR
Sequence of Beta-1 adrenergic receptor (P18090 whole entry): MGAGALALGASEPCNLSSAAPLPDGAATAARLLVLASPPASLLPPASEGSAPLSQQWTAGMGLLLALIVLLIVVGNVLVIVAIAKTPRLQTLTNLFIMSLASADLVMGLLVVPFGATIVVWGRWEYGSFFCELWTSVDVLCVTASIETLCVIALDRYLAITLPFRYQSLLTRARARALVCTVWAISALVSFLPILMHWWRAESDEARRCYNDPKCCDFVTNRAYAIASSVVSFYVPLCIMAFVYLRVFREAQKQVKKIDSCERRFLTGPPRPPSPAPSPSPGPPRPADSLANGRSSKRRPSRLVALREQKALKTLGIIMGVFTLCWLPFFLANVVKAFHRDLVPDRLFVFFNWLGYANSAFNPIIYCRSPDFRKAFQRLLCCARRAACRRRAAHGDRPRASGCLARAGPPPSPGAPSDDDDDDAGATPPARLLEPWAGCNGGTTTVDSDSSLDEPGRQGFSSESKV
Sequence of Cannabinoid receptor 1 (P20272 whole entry): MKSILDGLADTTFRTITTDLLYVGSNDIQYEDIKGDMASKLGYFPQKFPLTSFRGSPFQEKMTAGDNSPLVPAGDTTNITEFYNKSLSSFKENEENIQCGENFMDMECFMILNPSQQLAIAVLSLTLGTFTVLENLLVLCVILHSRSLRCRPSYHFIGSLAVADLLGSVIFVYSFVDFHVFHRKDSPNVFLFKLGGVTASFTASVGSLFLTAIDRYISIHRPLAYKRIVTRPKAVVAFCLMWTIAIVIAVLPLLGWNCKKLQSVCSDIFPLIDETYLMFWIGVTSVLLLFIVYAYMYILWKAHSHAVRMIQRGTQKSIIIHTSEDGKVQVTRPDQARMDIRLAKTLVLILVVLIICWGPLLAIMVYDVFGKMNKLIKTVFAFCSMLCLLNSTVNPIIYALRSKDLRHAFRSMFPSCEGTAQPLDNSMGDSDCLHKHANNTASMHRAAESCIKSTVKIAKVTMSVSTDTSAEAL

N[C@H](CCS(=O)(=O)O)C(=O)O [D-homocysteic acid]
> 10 µM: Vasopressin V1b receptor | [1] | [2] | Cannabinoid receptor 1 | Histamine H1 receptor | [3] | [4] | Histamine H2 receptor | Vasopressin V2 receptor | Nischarin | Oxytocin receptor | [5] | [6] | [7] | [8] | [9] | [10]

N[C@H](CCS(=O)O)C(=O)O [D-homocysteine sulfinic acid]
> 10 µM: Vasopressin V1b receptor | [1] | [2] | Cannabinoid receptor 1 | Histamine H1 receptor | [3] | [4] | Histamine H2 receptor | Vasopressin V2 receptor | Nischarin | Oxytocin receptor | [5] | [6] | [7] | [8] | [9] | [10]

N[C@H](CS(=O)(=O)O)C(=O)O [L-cysteic acid]
> 10 µM: Vasopressin V1b receptor | [1] | [2] | Cannabinoid receptor 1 | Histamine H1 receptor | [3] | [4] | Histamine H2 receptor | Vasopressin V2 receptor | Nischarin | Oxytocin receptor | [5] | [6] | [7] | [8] | [9] | [10]
